Experimental findings from patent US11548868B2, “Heterocyclic compounds, compositions comprising heterocyclic compound, and methods of use thereof” (JS INNOPHARM (SHANGHAI) LTD, priority 2017, dated 2023) are described below.

Test [1] concerns the target T1, TDO2 in A172 cancer cells (Homo sapiens, UniProt P48775).
T1 construct: endogenous in cells; host or cells: A172 cancer cells
The test is described as follows: TDO2 Cellular Assay (kynurenine production in A172 cancer cells). Format: cell-based. To be noted: L-Trp 1 mM, 24 hours incubation, kynurenine at 490 nm. In a few lines: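 A172 cells seeded overnight, then given 1 mM L-Trp and test compound (0–25 μM, 0.25% DMSO) for 24 h at 37 °C. Supernatant treated with TCA at 50 °C to convert N-formylkynurenine, kynurenine detected with p-dimethylaminobenzaldehyde at 490 nm; IC50 by non-linear regression of inhibition versus DMSO control.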

The target of test [2] is T2, IDO1 in Hela cancer cells (Homo sapiens, UniProt P14902).
T2 construct: endogenous in cells; host or cells: Hela cancer cells stimulated with human IFN-γ
T2 sequence (P14902 whole entry): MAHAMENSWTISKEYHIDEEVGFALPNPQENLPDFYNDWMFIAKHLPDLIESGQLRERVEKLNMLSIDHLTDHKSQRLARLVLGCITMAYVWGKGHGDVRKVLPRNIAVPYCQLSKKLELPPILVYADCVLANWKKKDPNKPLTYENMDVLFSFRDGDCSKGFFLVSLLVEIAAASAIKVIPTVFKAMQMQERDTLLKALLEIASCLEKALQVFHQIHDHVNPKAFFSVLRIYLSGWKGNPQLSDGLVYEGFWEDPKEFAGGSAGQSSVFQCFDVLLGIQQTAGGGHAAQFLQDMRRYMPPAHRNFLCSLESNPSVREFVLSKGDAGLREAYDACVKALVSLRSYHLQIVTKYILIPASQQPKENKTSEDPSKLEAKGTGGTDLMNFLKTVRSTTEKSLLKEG
The test is described as follows: IDO1 Cellular Assay (kynurenine production in IFN-γ stimulated Hela cancer cells). The class given is cell-based. The conditions noted are these: human IFN-γ 50 ng/mL, 48 hours incubation, kynurenine at 490 nm. The procedure, abridged:
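HeLa cells stimulated with 50 ng/mL IFN-γ (final) and treated 48 h with compound (0–25 μM final, 0.25% DMSO). Supernatant kynurenine measured after TCA hydrolysis and p-dimethylaminobenzaldehyde reaction at 490 nm; inhibition vs DMSO control, IC50 by non-linear regression.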

T1 sequence (P48775 whole entry): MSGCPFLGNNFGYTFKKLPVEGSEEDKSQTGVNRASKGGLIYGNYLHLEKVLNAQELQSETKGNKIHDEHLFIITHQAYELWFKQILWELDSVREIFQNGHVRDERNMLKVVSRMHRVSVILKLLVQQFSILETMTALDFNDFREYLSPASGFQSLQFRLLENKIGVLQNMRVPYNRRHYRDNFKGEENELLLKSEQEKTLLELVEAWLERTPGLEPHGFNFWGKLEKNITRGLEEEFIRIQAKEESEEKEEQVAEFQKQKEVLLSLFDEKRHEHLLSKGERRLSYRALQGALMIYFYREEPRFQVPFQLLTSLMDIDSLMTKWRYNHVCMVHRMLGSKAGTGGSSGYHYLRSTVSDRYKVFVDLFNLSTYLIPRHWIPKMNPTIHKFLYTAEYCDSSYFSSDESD

As usually defined, the IC50 is the concentration needed to halve the response being measured. As to `NC(=O)c1cccc(C(=O)N[C@H]2[C@@H]3C[C@@](O)(c4cc(Cl)cc5[nH]ncc45)C[C@@H]32)c1` [Example 157, N1-((1R,3r,5S,6r)-3-(6-chloro-1H-indazol-4-yl)-3-hydroxybicyclo[3.1.0]hexan-6-yl)isophthalamide], the IC50 is at most 500 nM in test [1] and above 5000 nM in test [2].
As for `O=C(N[C@H]1[C@@H]2C[C@@](O)(c3cc(Cl)cc4[nH]ncc34)C[C@@H]21)c1cnoc1` [Example 158, N-((1R,3r,5S,6r)-3-(6-chloro-1H-indazol-4-yl)-3-hydroxybicyclo[3.1.0]hexan-6-yl)isoxazole-4-carboxamide], the half-maximal inhibitory concentration (IC50) was 1000 to 5000 nM in test [1] and above 5000 nM in test [2].
Take `O=C(N[C@H]1[C@@H]2C[C@@](O)(c3cc(Cl)cc4[nH]ncc34)C[C@@H]21)c1cnon1` [Example 159, N-((1R,3r,5S,6r)-3-(6-chloro-1H-indazol-4-yl)-3-hydroxybicyclo[3.1.0]hexan-6-yl)-1,2,5-oxadiazole-3-carboxamide]: the values for the IC50 in test [1] and in test [2] were at most 500 nM and above 5000 nM, respectively.
`O=S(=O)(NC1CC1)N[C@H]1[C@@H]2C[C@@](O)(c3cc(Cl)cc4[nH]ncc34)C[C@@H]21` [Example 160, N′-cyclopropyl-N-((1R,3r,5S,6r)-3-(6-chloro-1H-indazol-4-yl)-3-hydroxybicyclo[3.1.0]hexan-6-yl)sulfuric diamide]: the half-maximal inhibitory concentration (IC50) in test [1] is at most 500 nM; in test [2], 1000 to 5000 nM.
`O=C(N[C@H]1[C@@H]2C[C@@](O)(c3cc(Cl)cc4[nH]ncc34)C[C@@H]21)c1ccnc(OC(F)(F)F)c1` [Example 161, N-((1R,3r,5S,6r)-3-(6-chloro-1H-indazol-4-yl)-3-hydroxybicyclo[3.1.0]hexan-6-yl)-2-(trifluoromethoxy)isonicotinamide]: the IC50 in test [1] and in test [2] was at most 500 nM in each case.
Consider `CNS(=O)(=O)N[C@H]1[C@@H]2C[C@@](O)(c3cc(C(F)(F)F)cc4[nH]ncc34)C[C@@H]21` [Example 162, N′-methyl-N-((1R,3r,5S,6r)-3-hydroxy-3-(6-(trifluoromethyl)-1H-indazol-4-yl)bicyclo[3.1.0]hexan-6-yl)sulfuric diamide], for which the IC50 in test [1] and in test [2] was at most 500 nM in each case.
With `O=C(N[C@H]1[C@@H]2C[C@@](O)(c3cc(C(F)(F)F)cc4[nH]ncc34)C[C@@H]21)c1cccc(Cl)c1` [Example 163, 3-chloro-N-((1R,3r,5S,6r)-3-hydroxy-3-(6-(trifluoromethyl)-1H-indazol-4-yl)bicyclo[3.1.0]hexan-6-yl)benzamide], the half-inhibitory concentration (IC50) in test [1] and in test [2] was at most 500 nM throughout.
`CC(=O)N[C@H]1[C@@H]2C[C@@](O)(c3cc(C(F)(F)F)cc4[nH]ncc34)C[C@@H]21` [Example 164, N-((1R,3r,5S,6r)-3-hydroxy-3-(6-(trifluoromethyl)-1H-indazol-4-yl)bicyclo[3.1.0]hexan-6-yl)acetamide]: the values for the IC50 in test [1] and in test [2] were at most 500 nM and above 5000 nM, respectively.
For `O=C(Nc1ccc(Cl)cc1)N1C[C@@H]2C[C@@](O)(c3cc(Cl)cc4[nH]ncc34)C[C@@H]2C1` [Example 165, (3aR,5r,6aS)-5-(6-chloro-1H-indazol-4-yl)-N-(4-chlorophenyl)-5-hydroxyhexahydrocyclopenta[c]pyrrole-2(1H)-carboxamide], the concentration for half-maximal inhibition (IC50) in test [1] was at most 500 nM; in test [2], 1000 to 5000 nM.
As to `O=C(N[C@H]1C[C@@H]2C[C@@](O)(c3cc(Cl)cc4[nH]ncc34)C[C@@H]2C1)c1cccc(Cl)c1` [Example 166, 3-chloro-N-((2r,3aR,5r,6aS)-5-(6-chloro-1H-indazol-4-yl)-5-hydroxyoctahydropentalen-2-yl)benzamide], the IC50 in test [1] is at most 500 nM; in test [2], 500 to 1000 nM.
The like results for `CC(=O)N[C@H]1C[C@@H]2C[C@@](O)(c3cc(Cl)cc4[nH]ncc34)C[C@@H]2C1` [Example 167, N-((2r,3aR,5r,6aS)-5-(6-chloro-1H-indazol-4-yl)-5-hydroxyoctahydropentalen-2-yl)acetamide] were, in that order, at most 500 nM and above 5000 nM.
The like results for `O=C(N[C@H]1[C@@H]2C[C@@](O)(c3cc(Cl)cc4[nH]ncc34)C[C@@H]21)c1ccc(F)c(F)c1` [Example 168, N-((1R,3r,5S,6r)-3-(6-chloro-1H-indazol-4-yl)-3-hydroxybicyclo[3.1.0]hexan-6-yl)-3,4-difluorobenzamide] were, in that order, at most 500 nM and at most 500 nM.
`O=C(N[C@H]1[C@@H]2C[C@@](O)(c3cc(Cl)cc4[nH]ncc34)C[C@@H]21)c1ccnc2ccccc12` [Example 169, N-((1R,3r,5S,6r)-3-(6-chloro-1H-indazol-4-yl)-3-hydroxybicyclo[3.1.0]hexan-6-yl)quinoline-4-carboxamide]: the IC50 in test [1] was at most 500 nM; in test [2], 1000 to 5000 nM.
Consider `O=C(N[C@H]1[C@@H]2C[C@@](O)(c3cc(Cl)cc4[nH]ncc34)C[C@@H]21)c1cncc(Br)c1` [Example 170, 5-bromo-N-((1R,3r,5S,6r)-3-(6-chloro-1H-indazol-4-yl)-3-hydroxybicyclo[3.1.0]hexan-6-yl)nicotinamide], for which the IC50 in test [1] and in test [2] was at most 500 nM in each case.
For `O=C(N[C@H]1[C@@H]2C[C@@](O)(c3cc(Cl)cc4[nH]ncc34)C[C@@H]21)c1cccc(-c2ccccc2)c1` [Example 171, N-((1R,3r,5S,6r)-3-(6-chloro-1H-indazol-4-yl)-3-hydroxybicyclo[3.1.0]hexan-6-yl)-[1,1′-biphenyl]-3-carboxamide], the IC50 was at most 500 nM in test [1] and 500 to 1000 nM in test [2].
Take `O=C(N[C@H]1[C@@H]2C[C@@](O)(c3cc(Cl)cc4[nH]ncc34)C[C@@H]21)c1ccc(F)c(C(F)(F)F)c1` [Example 172, N-((1R,3r,5S,6r)-3-(6-chloro-1H-indazol-4-yl)-3-hydroxybicyclo[3.1.0]hexan-6-yl)-4-fluoro-3-(trifluoromethyl)benzamide]: the IC50 in test [1] and in test [2] was at most 500 nM each time.
Turning to `O=C(N[C@H]1[C@@H]2C[C@@](O)(c3cc(Cl)cc4[nH]ncc34)C[C@@H]21)c1cncc(F)c1` [Example 173, N-((1R,3r,5S,6r)-3-(6-chloro-1H-indazol-4-yl)-3-hydroxybicyclo[3.1.0]hexan-6-yl)-5-fluoronicotinamide], the IC50 in test [1] was at most 500 nM; in test [2], 500 to 1000 nM.
As to `C#Cc1cccc(C(=O)N[C@H]2[C@@H]3C[C@@](O)(c4cc(Cl)cc5[nH]ncc45)C[C@@H]32)c1` [Example 174, N-((1R,3r,5S,6r)-3-(6-chloro-1H-indazol-4-yl)-3-hydroxybicyclo[3.1.0]hexan-6-yl)-3-ethynylbenzamide], the half-inhibitory concentration (IC50) in test [1] and in test [2] was at most 500 nM each time.
For the compound `O=C(Cc1ccc(Cl)cc1)N1C[C@@H]2C[C@@](O)(c3cc(Cl)cc4[nH]ncc34)C[C@@H]2C1` [Example 175, 1-((3aR,5r,6aS)-5-(6-chloro-1H-indazol-4-yl)-5-hydroxyhexahydrocyclopenta[c]pyrrol-2(1H)-yl)-2-(4-chlorophenyl)ethanone], the figures for the IC50 in test [1] and in test [2] were at most 500 nM and 1000 to 5000 nM, respectively.
